Test results as given in EP1377579B1 (Aventis Pharmaceuticals Inc., priority 2000, dated 2002).
Structures can show the parent of a compound that is named as a salt. Where two headings read alike, the source gives them in different places.

Assays:
cdk4/cyclin D1 = cdk4/cyclin D1 (Homo sapiens, UniProt P11802); test: Cyclin-dependent kinase assay, cdk4/cyclin D1; assay type: biochemical; settings: cyclin D1/cdk4; GST-pRb substrate, 10 µM ATP
MDA-MB-435 = test: In vitro proliferation assay (MTT), MDA-MB-435; assay type: cell-based, human; settings: Homo sapiens
In short: (§1)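 Following 3 days of compound treatment, MTT was added and the dye dissolved in DMSO for 570 nm absorbance; IC50s derived from these raw readings. Seeding density 1000 to 2500 cells/well depending on line, with overnight recovery before dosing.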

HL-60 = test: In vitro proliferation assay (MTT), HL-60; assay type: cell-based; settings: Homo sapiens
In short: (§2)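 Viability was read as absorbance at 570 nm after DMSO solubilization of MTT dye, which was given to cultures for 2 to 4 hr at 37 C on day 3 of compound treatment. Cells were seeded overnight beforehand at 1000 to 2500/well. IC50 values came from MTT or SRB data.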

Jurkat = test: In vitro proliferation assay (MTT), Jurkat; assay type: cell-based; settings: Homo sapiens, MTT assay, value (SD, n) where given, read-out: Jurkat Leuk. (IC50 µM)
In short: as §2

PC-3 = test: In vitro proliferation assay (MTT), PC-3; assay type: cell-based, human; settings: Homo sapiens
In short: as §1

[1] = tested on: PC-3 Human Prostate Tumors; test: PC-3 human prostate tumor xenograft in nude mice; assay type: in vivo; parameters: unit not given here; settings: Table 5
Description: (§3) Antitumor efficacy is assessed using two subcutaneous human tumor xenograft models. The studies are performed using conventional assay techniques. Briefly, HL-60 (leukemia, 5 x10^5 cells) and PC-3 (prostate, 5 x 10^6 cells) tumor cells are injected subcuateously into nude mice (Crl-CD1-Br-nu, Charles River Laboratory, Wilmington, MA). Dosing with compounds began when tumors reached 50 to 100 mm^3. The dose route/schedule for the test compounds is ip/qld (5x/wk). The test doses are set based on the maximum tolerated dose (MTD). […] The test doses for the efficacy studies are set at 1/3rd the MTD (low dose) and the MTD (high dose). The results are shown in Tables 4 and 5 (HL-60, leukemia) (PC-3, prostate cancer). The length of the treatment phase is dependent on the tumor growth rate for the two models. This treatment phase is typically about 3 weeks for the HL-60 model and about 5 weeks for the PC-3 model. […] Dosing with flavopiridol is for the same time frame as for the experimental compounds in both xenograft models. Tumor volume (twice weekly) and body weights (once weekly) are monitored throughout the course of the treatment phase of the experiment. Tumor sizes are measured by external caliper measurements of protruding tumor. Volumes are calculated using the following formula: volume =½ (a x b2), where b is the smaller of two perpendicular diameters.

HL-60 Human Leukemia = test: HL-60 human leukemia xenograft in nude mice; assay type: in vivo; settings: Table 5
Description: as §3

cdk1/cyclin B = cdk1/cyclin B (Homo sapiens, UniProt P06493); test: Cyclin-dependent kinase assay, cdk1/cyclin B; settings: CDK1 IC50, nM, Histone H1, 10 µM ATP
Sequence of cdk1/cyclin B (P06493 whole entry): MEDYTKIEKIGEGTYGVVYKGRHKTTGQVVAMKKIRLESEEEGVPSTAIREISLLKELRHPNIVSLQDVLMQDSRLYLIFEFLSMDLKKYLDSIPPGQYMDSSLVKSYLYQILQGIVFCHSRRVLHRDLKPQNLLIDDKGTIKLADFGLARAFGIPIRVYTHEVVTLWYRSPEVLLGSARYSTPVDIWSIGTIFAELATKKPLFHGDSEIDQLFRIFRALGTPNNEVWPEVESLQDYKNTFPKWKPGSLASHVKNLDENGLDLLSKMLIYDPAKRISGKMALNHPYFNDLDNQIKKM
Sequence of cdk1/cyclin B (P14635 whole entry partner): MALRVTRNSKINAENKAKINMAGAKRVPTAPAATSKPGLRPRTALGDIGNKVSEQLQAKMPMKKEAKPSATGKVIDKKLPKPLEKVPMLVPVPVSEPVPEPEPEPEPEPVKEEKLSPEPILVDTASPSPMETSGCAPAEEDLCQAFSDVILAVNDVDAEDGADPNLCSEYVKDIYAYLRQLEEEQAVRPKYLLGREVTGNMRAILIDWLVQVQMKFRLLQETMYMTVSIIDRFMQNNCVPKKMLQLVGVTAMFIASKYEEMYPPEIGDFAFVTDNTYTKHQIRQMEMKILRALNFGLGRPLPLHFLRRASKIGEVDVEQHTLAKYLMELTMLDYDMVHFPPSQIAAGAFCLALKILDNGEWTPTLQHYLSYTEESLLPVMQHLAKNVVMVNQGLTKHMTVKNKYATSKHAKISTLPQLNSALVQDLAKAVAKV

cdk2/cyclin E = cdk2/cyclin E (Homo sapiens, UniProt P24941); test: Cyclin-dependent kinase assay, cdk2/cyclin E; settings: CDK2 IC50, nM, GST-pRb substrate, 10 µM ATP
Description: The insect cell (Sf9) expression is optimized for each of the CDK/cyclin pairs according to the manufacturer's protocols (Life Technologies).
The viruses are added to the cells and the culture is incubated at 27°C for the desired time. The cells are harvested by centrifugation at 3000 rpm for 10 minutes. The cells are snap frozen on dry ice and stored at - 80°C.
Cell extracts are made following a standard procedure. The cell pellet is resuspended in lysis buffer (50 mM HEPES, pH 8.0, 10 mM MgCl2, 1 mM DTT, 2.5 mM EGTA, 1 mM EDTA, 10 mM β-glycerophosphate, 1 mM sodium vanadate, 1 mM sodium fluoride, 1 x Protease inhibitor cocktail). The cells are lysed using the microfluidizer (Microfluidics) for 20 minutes. Cell debris is removed by centrifugation at 100,000 x g. The cell extracts are aliquoted in 1 ml aliquots, frozen on dry ice, and stored at -80°C.
The kinase reactions are performed following a standard procedure. The enzyme and inhibitor are diluted in kinase buffer (50 mM HEPES, pH 8.0, 10 mM MgCl2, 2.5 mM EGTA, 10 mM β-glycerophosphate, 1 mM sodium vanadate, 1 mM sodium fluoride, and 1 mM DTT) and pre-incubated for 30 minutes. The cdk2 and cdk4 enzyme activities are assayed using 500 ng of the GST-pRb substrate (see description below) in the presence of 10 µM cold ATP and 1 µCi of [γ-^33P] ATP for 30 minutes at room temperature. […] The reactions are terminated by the addition of 50 µL of 10 mM cold ATP to stop the reactions. The reactions are transferred to a pre-soaked 96-well multi-screen plate containing 30 µL of 100% TCA per well. After incubation for one hour at room temperature, the plates are washed twice with 200 µl of 20% TCA, followed by 200 µl of 10% TCA and finally with 200 µl of 5% TCA. After drying the plates at room temperature, the filter plates are placed in adapter plates (Packard) and 40 µl of Microscint-O® (Packard) is added to each well.

NCI-H460 = test: In vitro proliferation assay (MTT), NCI-H460; assay type: cell-based; settings: Homo sapiens
In short: as §2

[2] = Red blood cell binding, human whole blood; assay type: in vitro ADME; settings: 30 minutes at 37°C, 500 ng/ml
Description: Compounds, including one positive control, are assessed for red blood cell (RBC) uptake, using a modified procedure based on the protocol reported in Sun, J.X.S., et al. High-performance liquid chromatographic analysis, plasma protein binding and red blood cell partitioning of phenprobamate. Biopharmaceutics and Drug Disposition, 8 (1987) 341-351.
Briefly, RBC uptake is evaluated by comparison of the levels in spiked plasma (n=3) and plasma isolated from spiked whole blood (n=3). Compounds are incubated with human and mouse whole blood, respectively, for 30 minutes at 37°C using a nominal concentration of 500 ng/ml. Following centrifugation, the plasma is removed and submitted for analysis. Each compound is also spiked into blank plasma at a nominal concentration of 500 ng/ml, and submitted for analysis. Levels in the two plasma samples (Cp' and Cp in the equation below) and the blood hematocrit are used to determine the red blood cell to plasma ratio (Crbc/Cp). (Crbc)/(Cp) = (Cpʹ)/(Cp•H)-((1-H))/(H) [formula] In equation 1, Cp' is the level of drug in the spiked "blank" plasma, Cp is the level of drug in the plasma of spiked whole blood, and H is the hematocrit. The hematocrit values are determined as 0.4 for human whole blood and 0.41 for mouse whole blood. The samples are analyzed with ESI LC/MS, using positive ion detection with an internal standard.
The red blood cell to plasma ratio is determined for each compound using equation 1. Tables 6 and 7 summarize the respective mean Crbc/Cp values and standard deviations for mouse and human whole blood, respectively, in descending order based on the red blood cell to plasma ratio, where"*" denotes Positive Control, and "ND" denotes Not Determined. MDL 108552 is included as a positive control for red blood cell uptake. Table 6. Red Blood Cell to Plasma Ratio for compounds in mouse whole blood

Colo-205 = test: In vitro proliferation assay (MTT), Colo-205; assay type: cell-based; settings: Homo sapiens
In short: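 After 3 days of compound exposure, MTT was added to Colo-205 cultures for 2–4 h at 37 °C. Formazan was dissolved in DMSO and absorbance read at 570 nm. Cells had been plated at 1000–2500/well and left to recover overnight; IC50 values came from the raw readings.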

in vivo = settings: male, Hsd:ICR (CD-1), mouse, plasma, 3 mg/kg
Description: (§4) Male mice are given single intravenous cassette doses of CDK inhibitor compounds.
(§5) Doses are adjusted for the weight of the individual dihydrochloride and trihydrochloride salts. The compounds are stored desiccated within a closed cabinet at room temperature before use. Dose levels are prepared on the morning of each study.
(§6) A single intravenous cassette dose (18 or 15 mg/kg free base) is administered. For each compound, this is equivalent to a dose of approx. 3 mg/kg free base. […] The dose is administered at a volume of 10 ml/kg (total volume of approximately 0.25 ml/animal).
(§7) Male mice (Hsd:ICR (CD-1® SD®), Harlan), each weighing approximately 20 - 30 g at the start of the study. […] Water is available ad libitum throughout the study.
(§8) Dose Administration and Sample Collection: • A single cassette dose of 5-6 compounds is administered by bolus injection into the tail vein over a 10 - 15-second period. […] Whole blood (approximately 0.6 ml/sample) is obtained by cardiac puncture and transferred to 3 ml glass tubes containing 45 U sodium heparin.
(§9) Sample Processing: Plasma: Whole blood is centrifuged at approximately 3,200 rpm for 10 min at approximately 5°C and the plasma (approx. 0.3 ml/sample) is transferred to chilled plastic vials and stored at approx. -70°C until bioanalysis.
(§10) Sample Analysis: Concentrations of each test article in plasma are quantitated by a non-validated method based on LC/MS using the following protocol.
(§11) Samples are removed from the freezer, allowed to thaw at room temperature, and vortexed to insure complete homogenization prior to sample manipulation. Samples are then prepared according to the following scheme: • 1. transfer 48 µL of plasma (blank mouse sample) into a 12 x 75 mm test tube. • 2. add 12 µL of working standard to the blank plasma for standard curve preparation. • 3. […] Inject 25 µL on LC/MS.
(§12) Data Analysis: Concentrations of Compounds in plasma of individual animals are determined by bioanalytics. […] Statistical analyses are limited to simple expressions of variation (mean and standard deviation). The plasma AUC (area-under-curve) is determined by the linear trapezoidal rule. […] All PK parameters are determined by noncompartmental methods using WinNonlin version 3.0 (Pharsight Corp). Plasma vs. time profiles are prepared by Sigma Plot (SPSS, Inc.).

[3] = Bioavailability experiment in mice given single intravenous cassette doses
Description: as §4, §5, §6, §7, §8, §9, §10, §11, §12

[4] = MDA-MB-435, MTT assay, value (SD, n) where given, read-out: MB-435 Breast (IC50 µM)
[5] = HL-60, MTT assay, value (SD, n) where given, read-out: HL-60 Leuk. (IC50 µM)
[6] = PC-3, MTT assay, value (SD, n) where given, read-out: PC-3 Prostate (IC50 µM)
[7] = NCI-H460, MTT assay, value (SD, n) where given, read-out: H-460 Lung (IC50 µM)
[8] = COLO 205, MTT assay, value (SD, n) where given, read-out: Colo-205 Colon (IC50 µM)

Sequence of cdk4/cyclin D1 (P11802 whole entry): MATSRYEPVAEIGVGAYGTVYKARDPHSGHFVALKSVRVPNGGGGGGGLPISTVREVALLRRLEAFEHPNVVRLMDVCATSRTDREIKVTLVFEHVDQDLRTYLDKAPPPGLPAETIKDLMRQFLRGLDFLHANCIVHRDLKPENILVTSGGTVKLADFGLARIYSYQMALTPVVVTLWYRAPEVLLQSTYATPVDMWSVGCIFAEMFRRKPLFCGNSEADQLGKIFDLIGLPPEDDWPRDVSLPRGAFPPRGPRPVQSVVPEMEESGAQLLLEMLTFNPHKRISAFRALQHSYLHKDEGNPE
Sequence of cdk4/cyclin D1 (P24385 whole entry partner): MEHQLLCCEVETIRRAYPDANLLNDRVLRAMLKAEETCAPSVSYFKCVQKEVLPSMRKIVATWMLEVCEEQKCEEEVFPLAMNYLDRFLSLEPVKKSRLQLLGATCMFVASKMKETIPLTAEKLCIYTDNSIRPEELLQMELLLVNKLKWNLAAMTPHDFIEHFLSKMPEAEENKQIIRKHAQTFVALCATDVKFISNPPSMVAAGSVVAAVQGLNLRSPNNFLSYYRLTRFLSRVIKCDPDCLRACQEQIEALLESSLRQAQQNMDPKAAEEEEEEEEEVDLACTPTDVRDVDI

N[C@H]1CC[C@H](Nc2nc(NC3CCN(C(=O)c4cccc(C(F)(F)F)c4)CC3)c3ncn(C4CCCC4)c3n2)CC1 [compound 3, dihydrochloride]
IC50 (cdk4/cyclin D1): 1120 nM | IC50 (MDA-MB-435; [4]): 0.25 µM | IC50 (HL-60; [5]): 0.13 µM | IC50 (Jurkat): 0.22 µM | IC50 (PC-3; [6]): 0.66 µM | PC-3 Mean Vol. ± SD ([1]; dose 1 mg/kg ip): 671 ± 672 | PC-3 Mean Vol. ± SD ([1]; dose 3 mg/kg ip): 785 ± 473 | HL60 Mean Vol. ± SD (HL-60 Human Leukemia; dose 1 mg/kg ip): 6370 ± 4655 | HL60 Mean Vol. ± SD (HL-60 Human Leukemia; dose 3 mg/kg ip): 6092 ± 4278 | IC50 (cdk1/cyclin B): 55 nM | IC50 (cdk2/cyclin E): 48 nM

Cc1ccc(OC(=O)N2CCC(Nc3nc(N[C@H]4CC[C@H](N)CC4)nc4c3ncn4C3CCCC3)CC2)cc1.Cl.Cl [compound 82, trans-4-[2-(4-Amino-cyclohexylamino)-9-cyclopentyl-9H-purin-6-ylamino]-piperidine-1-carboxylic acid p-tolyl ester dihydrochloride]
IC50 (cdk4/cyclin D1): 131 nM | IC50 (MDA-MB-435; MDA-MB-435, read-out: MB-435 Breast (IC50 µM)): 0.06 µM | IC50 (NCI-H460; NCI-H460, read-out: H-460 Lung (IC50 µM)): 0.08 µM | IC50 (HL-60; HL-60, read-out: HL-60 Leuk. (IC50 µM)): 0.04 µM | IC50 (PC-3; PC-3, read-out: PC-3 Prostate (IC50 µM)): 0.12 µM | PC-3 Mean Vol. ± SD ([1]; dose 1 mg/kg ip): 810 ± 600 | PC-3 Mean Vol. ± SD ([1]; dose 3 mg/kg ip): 967 ± 407 | HL60 Mean Vol. ± SD (HL-60 Human Leukemia; dose 1 mg/kg ip): 5164 ± 55516 | HL60 Mean Vol. ± SD (HL-60 Human Leukemia; dose 3 mg/kg ip): 2841 ± 1845 | Mean Red Blood Cell to Plasma Ratio [2]: 5.8 | IC50 (Colo-205; COLO 205, read-out: Colo-205 Colon (IC50 µM)): 0.06 µM | concentration at 0.083 h (in vivo; intravenous): 1460 ± 77.4 ng/mL | concentration at 0.25 h (in vivo; intravenous): 875 ± 96.7 ng/mL | concentration at 0.5 h (in vivo; intravenous): 370 ± 40 ng/mL | concentration at 1 h (in vivo; intravenous): 134 ± 16.3 ng/mL | concentration at 3 h (in vivo; intravenous): 37.5 ± 10.7 ng/mL | concentration at 6 h (in vivo; intravenous): 14.5 ± 3.4 ng/mL | concentration at 8 h (in vivo; intravenous): 12.3 ± 2.2 ng/mL | AUC(0-inf) (in vivo; iv): 944 ng·h/mL | Cmax (in vivo; iv): 1460 ng/mL | half-life (in vivo; iv): 3 h | IC50 (cdk1/cyclin B): 31 nM | IC50 (cdk2/cyclin E): 45 nM | Cls ([3]; mice plasma, single intravenous cassette dose, 3 mg/kg/compound (15 mg/kg Total Dose), Cassette #4): 53.0 mL/min/kg | Conc. in plasma ([3]; mice, single 15 mg/kg intravenous cassette dose (3 mg/kg/compound), Cassette #4, 24 h, BLQ = below assay quantification limit (approximately 1 ng/ml)): BLQ

CCOC(=O)c1ccccc1NC(=O)N1CCC(Nc2nc(N[C@H]3CC[C@H](N)CC3)nc3c2ncn3C2CCCC2)CC1 [compound 199, trans-2-[(1-{4-[2-(4-Amino-cyclohexylamino)-9-cyclopentyl-9H-purin-6-ylamino]-piperidin-1-yl}-methanoyl)-amino]-benzoic acid ethyl ester dihydrochloride]
IC50 (cdk4/cyclin D1): 670 nM | IC50 (MDA-MB-435; [4]): 0.26 µM | IC50 (NCI-H460; [7]): 0.18 µM | IC50 (HL-60; [5]): 0.06 µM | IC50 (Jurkat): 0.34 µM | IC50 (PC-3; [6]): 0.26 µM | IC50 (Colo-205; [8]): 0.06 µM | IC50 (cdk1/cyclin B): 70 nM | IC50 (cdk2/cyclin E): 20 nM

N[C@H]1CC[C@H](Nc2nc(NC3CCN(C(=O)Nc4cc(C(F)(F)F)ccc4F)CC3)c3ncn(C4CCCC4)c3n2)CC1 [compound 200, trans-4-[2-(4-Amino-cyclohexylamino)-9-cyclopentyl-9H-purin-6-ylamino]-piperidine-1-carboxylic acid (2-fluoro-5-trifluoromethyl-phenyl)-amide dihydrochloride]
IC50 (cdk4/cyclin D1): 597 nM | IC50 (MDA-MB-435; [4]): 0.09 µM | IC50 (NCI-H460; [7]): 0.19 µM | IC50 (HL-60; [5]): < 0.02 µM | IC50 (Jurkat): 0.21 µM | IC50 (PC-3; [6]): 0.16 µM | IC50 (Colo-205; [8]): 0.06 µM | IC50 (cdk1/cyclin B): 10 nM | IC50 (cdk2/cyclin E): 23 nM

N[C@H]1CC[C@H](Nc2nc(NC3CCN(C(=O)Nc4ccc(F)cc4C(F)(F)F)CC3)c3ncn(C4CCCC4)c3n2)CC1 [compound 202, trans-4-[2-(4-Amino-cyclohexylamino)-9-cyclopentyl-9H-purin-6-ylamino]-piperidine-1-carboxylic acid (4-fluoro-2-trifluoromethyl-phenyl)-amide dihydrochloride]
IC50 (cdk4/cyclin D1): 673 nM | IC50 (MDA-MB-435; [4]): 0.22 µM | IC50 (NCI-H460; [7]): 0.33 µM | IC50 (HL-60; [5]): < 0.02 µM | IC50 (Jurkat): 0.53 µM | IC50 (PC-3; [6]): 0.23 µM | IC50 (Colo-205; [8]): 0.2 µM | IC50 (cdk1/cyclin B): 137 nM | IC50 (cdk2/cyclin E): 48 nM

N[C@H]1CC[C@H](Nc2nc(NC3CCN(C(=O)Nc4ccc(F)c(C(F)(F)F)c4)CC3)c3ncn(C4CCCC4)c3n2)CC1 [compound 203, trans-4-[2-(4-Amino-cyclohexylamino)-9-cyclopentyl-9H-purin-6-ylamino]-piperidine-1-carboxylic acid (4-fluoro-3-trifluoromethyl-phenyl)-amide dihydrochloride]
IC50 (cdk4/cyclin D1): 733 nM | IC50 (MDA-MB-435; [4]): 0.22 µM | IC50 (NCI-H460; [7]): 0.54 µM | IC50 (HL-60; [5]): < 0.02 µM | IC50 (Jurkat): 0.5 µM | IC50 (PC-3; [6]): 0.3 µM | IC50 (Colo-205; [8]): 0.17 µM | IC50 (cdk1/cyclin B): 10 nM | IC50 (cdk2/cyclin E): 51 nM

N[C@H]1CC[C@H](Nc2nc(NC3CCN(C(=O)Nc4ccccc4F)CC3)c3ncn(C4CCCC4)c3n2)CC1 [compound 207, trans-4-[2-(4-Amino-cyclohexylamino)-9-cyclopentyl-9H-purin-6-ylamino]-piperidine-1-carboxylic acid (2-fluoro-phenyl)-amide dihydrochloride]
IC50 (cdk4/cyclin D1): 44 nM | IC50 (MDA-MB-435; [4]): 0.11 µM | IC50 (NCI-H460; [7]): 0.14 µM | IC50 (HL-60; [5]): 0.02 µM | IC50 (Jurkat): 0.13 µM | IC50 (PC-3; [6]): 0.13 µM | IC50 (Colo-205; [8]): 0.03 µM | IC50 (cdk1/cyclin B): 50 nM | IC50 (cdk2/cyclin E): 46 nM

N[C@H]1CC[C@H](Nc2nc(NC3CCN(C(=O)Nc4ccc(Cl)c(Cl)c4)CC3)c3ncn(C4CCCC4)c3n2)CC1 [compound 209, trans-4-[2-(4-Amino-cyclohexylamino)-9-cyclopentyl-9H-purin-6-ylamino]-piperidine-1-carboxylic acid (3,4-dichloro-phenyl)-amide dihydrochloride]
IC50 (cdk4/cyclin D1): 50 nM | IC50 (MDA-MB-435; [4]): 0.17 µM | IC50 (NCI-H460; [7]): 0.29 µM | IC50 (HL-60; [5]): < 0.02 µM | IC50 (Jurkat): 0.13 µM | IC50 (PC-3; [6]): 0.26 µM | IC50 (Colo-205; [8]): 0.05 µM | IC50 (cdk1/cyclin B): 13 nM | IC50 (cdk2/cyclin E): 34 nM
